Reference: US9115101B2 (Genentech, Inc., priority 2012, dated 2015)

target: T1, RORc ligand binding domain (Homo sapiens, UniProt P51449); assay: In Vitro RORc Ligand Binding Assay (25-[3H]hydroxycholesterol radioligand filtration); details: In Vitro RORc Ligand Binding Assay; Table 4; read-out: RORc IC50
T1 construct: host or cells: E. coli
T1 sequence (P51449 269-508 limits assumed): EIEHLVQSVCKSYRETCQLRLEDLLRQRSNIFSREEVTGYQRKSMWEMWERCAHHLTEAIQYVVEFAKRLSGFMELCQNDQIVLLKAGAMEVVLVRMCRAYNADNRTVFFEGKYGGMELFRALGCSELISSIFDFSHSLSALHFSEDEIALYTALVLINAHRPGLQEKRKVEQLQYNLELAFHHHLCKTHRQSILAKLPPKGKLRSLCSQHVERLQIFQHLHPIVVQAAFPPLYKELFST

IC50	SMILES
29 nM	C[C@H]1CCC(c2ccccc2)S(=O)(=O)N1Cc1ccc(N2CCC(c3cc(O)no3)CC2)cc1F (single isomer, unassigned) [Example 152]
32 nM	CC(=O)N1CCN(c2ccc(CN3CCCCC(c4ccccc4)S3(=O)=O)cc2F)CC1 (single isomer, unassigned) [Example 344, 1-{4-[4-(1,1-Dioxo-7-phenyl-[1,2]thiazepan-2-ylmethyl)-2-fluoro-phenyl]-piperazin-1-yl}-ethanone]
812 nM	COc1cc(CN2[C@@H](C)CCC(c3ccccc3)S2(=O)=O)ccc1N1CCN(C(C)=O)CC1 (single isomer, unassigned) [Example 162]
14 nM	CS(=O)(=O)N1CCC(Oc2ccc(CN3CCOCC(c4ccccc4)S3(=O)=O)c(F)c2)CC1 (single isomer, unassigned) [Example 57, 5-(2-fluoro-4-((1-(methylsulfonyl)piperidin-4-yl)oxy)benzyl)-3-phenyl-1,4,5-oxathiazepane 4,4-dioxide]
73 nM	C[C@H]1CCC(c2ccccc2)S(=O)(=O)N1Cc1ccc(N[C@H]2CC[C@@H](n3cnnc3)CC2)cc1F (stereo partly drawn) [Example 231, [3-Fluoro-4-((3S)-methyl-1,1-dioxo-6-phenyl-[1,2]thiazinan-2-ylmethyl)-phenyl]-(4-[1,2,4]triazol-4-yl-cyclohexyl)-amine]
12 nM	C[C@H]1CCC(c2ccccc2)S(=O)(=O)N1Cc1ccc(N2CCC3(CC2)COC3)cc1F (single isomer, unassigned) [Example 100]
432 nM	CC(=O)N1CCN(c2ccc(CN3[C@@H](C)CCC(c4ccccc4)S3(=O)=O)cc2C)CC1 (single isomer, unassigned) [Example 129]
142 nM	CON(C)C(=O)C1CCN(c2ccc(CN3[C@@H](C)CCC(c4ccccc4)S3(=O)=O)c(F)c2)CC1 (single isomer, unassigned) [Example 146]
15 nM	CC(=O)N1CCN(c2ccc(CN3CC(C)CCC(c4ccccc4)S3(=O)=O)c(F)c2)CC1 (single isomer, unassigned) [Example 339, 1-{4-[3-Fluoro-4-(4-methyl-1,1-dioxo-7-phenyl-[1,2]thiazepan-2-ylmethyl)-phenyl]-piperazin-1-yl}-ethanone]
